≈ marks a conversion by molar mass, not a printed value.
Tests used:
[1] = test system: Cladophialophora carrionii (CFP 00910); test: Minimum fungicidal concentration determination; assay type: cell-based
Method: The MFC was determined as the lowest drug concentration without fungal growth on Sabouraud agar after five days of incubation at 35 °C.

[2] = test system: Exophiala dermatitidis (ATCC 28869); test: Minimum fungicidal concentration determination; assay type: cell-based
Method: (§1) Minimum fungicidal concentration (MFC) was determined in triplicate by transferring a 5 μL aliquot from each well without fungal growth of the microdilution plates used for MIC determination, as described above, onto 2% glucose Sabouraud agar (Sigma Chemical Corporation). The MFC was determined as the lowest drug concentration without fungal growth on Sabouraud agar after five days of incubation at 35 °C. When the MFC/MIC ratio of a hit drug was 1 or 2, the substance was considered fungicidal against the pathogen. If this ratio was greater than 2, the hit drug was considered to be fungistatic.

[3] = test system: Exophiala heteromorpha (ATCC 28180); test: Minimum fungicidal concentration determination; assay type: cell-based
Method: as §1

[4] = test system: Fonsecaea monophora (CFP 00911); test: Minimum fungicidal concentration determination; assay type: cell-based
Method: as §1

[5] = test system: Fonsecaea nubica (CFP 00912); test: Minimum fungicidal concentration determination; assay type: cell-based
Method: as §1

[6] = test system: Fonsecaea pedrosoi (CFP 00791); test: Minimum fungicidal concentration determination; assay type: cell-based
Method: as §1

[7] = test system: Phialophora verrucosa (CFP 00937); test: Minimum fungicidal concentration determination; assay type: cell-based
Method: as §1

[8] = test system: Rhinocladiela similis (CFP 00790); test: Minimum fungicidal concentration determination; assay type: cell-based
Method: as §1

[9] = Effect of albendazole on cell viability, MTT assay; assay type: cell-based; conditions: after 96 h
Method: After this analysis, the effect on viability of albendazole on both HaCat (human skin keratinocyte) and Vero (monkey kidney epithelial cell) cells was evaluated by MTT assay. Firstly, the mammalian cells (5 × 10^4/well) were allowed to adhere in 96-well tissue culture plates for 4 h at 37 °C in a 5% CO2 atmosphere. Non-adherent cells were removed by washes with sterile DMEM and the wells refilled with DMEM medium supplemented with 10% FBS. The cells were then incubated with increasing concentrations of albendazole (15.62 to 750 µM) and incubated for additional 24 h and 96 h at 37 °C in a 5% CO2 atmosphere. Subsequently, the culture medium was discharged, and the formation of formazan was measured by adding MTT (5 mg/mL in PBS, 25 µg/well) and incubating the wells for 3 h in the dark at 37 °C. Wells with cells receiving only the culture medium with or without 1% DMSO were also included as positive cellular growth controls. The plates were subsequently centrifuged at 500× g for 8 min, the supernatant was removed, the pellet was dissolved in 200 µL of DMSO, and the absorbance measured in an ELISA reader at 570 nm (SpectraMax Gemini 190, Molecular Devices, CA, USA). The 50% cytotoxicity inhibitory concentration (CC50) was determined by non-linear regression analysis.

[10] = test system: CBM agents; test: Chequerboard synergism assay, stated over all tested isolates; assay type: cell-based
Method: To assess the type of interaction between the hit drugs and the antifungal drugs most used in the treatment of CBM (itraconazole and terbinafine), the fractional inhibitory concentration index (FICI) was determined, which defines the type of interaction between drugs in combination as follows: synergism if FICI ≤ 0.5; indifference if 0.5 < FICI ≤ 4; and antagonism if FICI > 4 [39]. The FICI was obtained by the sum of the fractional inhibitory concentrations (FIC) or by the formula: (A/MIC(a) = FIC_A) + (B/MIC(b) = FIC_B) = FICI, where: A = MIC of the drug (a) in combination; MIC (a) = MIC of drug (a) alone; B = MIC of drug (b) in combination; and MIC (b) = MIC of drug (b) alone. The test was carried out using the chequerboard method, in which the two drugs were applied in a single well of a 96-well plate, so that in each of the wells there were different concentrations of the combinations between the substance and the antifungal agent (Figure S1). Drug dilutions were prepared following the methodology proposed by EUCAST, starting from a stock solution of the hit drug or antifungal drug 100× concentrated, according to the methodology described to determine the MIC [36]. Hit drug A/antifungal drug B serial microdilution preparations were performed following the above mentioned protocol, observing the final concentration in the wells after the addition of drugs and inoculum. […]

[11] = test system: Cladophialophora carrionii (CFP 00910); conditions: C. carrionii; PDA; 7 days, 37 °C; albendazole at ½ MIC
Method: (§2) At the end of the seven days of incubation at 37 °C, the plates were read visually. The aspect of the colonies supplemented with albendazole were compared to those of the positive melanin and inhibition melanin controls, to determine whether the color of the albendazole-supplemented cultures resembled the positive DHN-melanin or the melanin inhibition control. Pictures of the colonies were captured using a Canon EOS Rebel T7+ digital camera.

[12] = test system: Exophiala heteromorpha (ATCC 28180); conditions: E. heteromorpha; PDA; 7 days, 37 °C; albendazole at ½ MIC
Method: as §2

[13] = test system: Fonsecaea pedrosoi (CFP 00791); conditions: F. pedrosoi; PDA; 7 days, 37 °C; albendazole at ½ MIC
Method: as §2

CCCSc1ccc2nc(NC(=O)OC)[nH]c2c1 [Albendazole]
MFC:MIC Ratio ([1]; C. carrionii): 8 | MFC ([1]; Cladophialophora carrionii): 20 µM (≈ 5.31 µg/mL) | MFC:MIC Ratio ([2]; E. dermatitidis): >32 | MFC ([2]; Exophiala dermatitidis, ATCC28869): > 80 µM | MFC:MIC Ratio ([3]; E. heteromorpha): 32 | MFC ([3]; Exophiala heteromorpha, ATCC28180): 80 µM (≈ 21.2 µg/mL) | MFC:MIC Ratio ([4]; F. monophora): 1 | fungicidal or fungistatic (MFC/MIC ratio) ([4]; F. monophora): fungicidal (When the MFC/MIC ratio of a hit drug was 1 or 2, the substance was considered fungicidal) | MFC ([4]; Fonsecaea monophora): 0.625 µM (≈ 0.166 µg/mL) | MFC:MIC Ratio ([5]; F. nubica): 64 | MFC ([5]; Fonsecaea nubica): 40 µM (≈ 10.6 µg/mL) | MFC:MIC Ratio ([6]; F. pedrosoi): 1 | fungicidal or fungistatic (MFC/MIC ratio) ([6]; F. pedrosoi): fungicidal (When the MFC/MIC ratio of a hit drug was 1 or 2, the substance was considered fungicidal) | MFC ([6]; Fonsecaea pedrosoi): 1.25 µM (≈ 0.332 µg/mL) | MFC:MIC Ratio ([7]; P. verrucosa): 64 | MFC ([7]; Phialophora verrucosa): 40 µM (≈ 10.6 µg/mL) | MFC [8]: > 80 µM | MFC:MIC Ratio ([8]; R. similis): >64 | CC50 at 96 h ([9]; human, HaCat keratinocyte cells): 85.1 µM | CC50 at 96 h ([9]; monkey, Vero kidney epithelial cells): 262 µM | type of interaction, albendazole with itraconazole [10]: indifferent | type of interaction, albendazole with terbinafine [10]: indifferent | melanin production [11]: did not observe a decrease in melanin production | melanin production [12]: did not observe a decrease in melanin production | melanin production [13]: did not observe a decrease in melanin production

From publication PMC10381309 (Journal of Fungi, 2023)
